Molecular target: human IDO1 protease (Homo sapiens (Human), UniProt P14902)
Assay: Inhibitory activity against human IDO1 protease (absorbance test method)
Type: biochemical
Conditions: IDO1 (His-tag) enzyme, absorbance at 320 nm
Procedure: 1) Experimental Materials and Apparatus: • IDO1 (His-tag) enzyme (BPS Bioscience) • L-tryptophan (Sigma) • Methylene blue (Sigma) • Catalase originated from the liver of cattle (Sigma) • L-ascorbic acid (Sigma) • Glycerol (Sigma) • Potassium dihydrogen phosphate solution (Sigma) • Tween 20 (Sigma) • Automatic sampling platform Liquid handler (Bravo & Echo) • Microplate Reader SpectraMax M5e (Molecular Devices)
2) Test Method of Compounds: The Compounds are Determined by Absorbance Test Method:
The tested compounds and the reference compounds are dissolved in DMSO to prepare a high concentration of storage solution. The stock solution of reference compound was diluted with DMSO to prepare a 100× solution. In the first column of the working plate, 8 μL above tested compounds and 8 μL 100× reference compound were respectively added as the highest concentration, and then the highest concentrations were subjected to three times dilution to obtain 11 concentrations and prepare 100× solution. 0.5 μL solution was transferred from the above plate to the detection plate. […]. For HPE and ZPE control wells, 0.5 μL 100% DMSO was added.
25 μL 2×IDO1 (His-tag) enzyme solution (containing L-ascorbic acid, methylene blue, and catalase) was added to each well. 25 μL reaction solution without IDO1 (His-tag) enzyme was added into HPE control well. The test plate was centrifugated at 1000 rpm for 1 minute to mix well. Then, the test plate was incubated at room temperature for 30 minutes. 25 μL above 2× substrate (L-tryptophan) solution was added to each well. The test plate was centrifugated at 1000 rpm for 1 minute to mix well. The detection plate was placed on ELISA (SpectraMax M5e), the temperature was set at 25° C., and the absorbance (OD value) was measured at 320 nm every 10 minutes till 60 minutes.
Calculating the increase ratio of absorbance: the slope of the absorbance increase curve from 10 min to 60 min is derived from SpectralMax M5e. The inhibition coefficient of compound was calculated: the inhibition ratio of compound=(the absorbance increase ratio of ZPE control well−the absorbance increase ratio of compound well)/(the absorbance increase ratio of ZPE control well−the absorbance increase ratio of HPE control well)×100. Results was analyzed by Prism 5.0.

Sequence of human IDO1 protease (P14902 whole entry): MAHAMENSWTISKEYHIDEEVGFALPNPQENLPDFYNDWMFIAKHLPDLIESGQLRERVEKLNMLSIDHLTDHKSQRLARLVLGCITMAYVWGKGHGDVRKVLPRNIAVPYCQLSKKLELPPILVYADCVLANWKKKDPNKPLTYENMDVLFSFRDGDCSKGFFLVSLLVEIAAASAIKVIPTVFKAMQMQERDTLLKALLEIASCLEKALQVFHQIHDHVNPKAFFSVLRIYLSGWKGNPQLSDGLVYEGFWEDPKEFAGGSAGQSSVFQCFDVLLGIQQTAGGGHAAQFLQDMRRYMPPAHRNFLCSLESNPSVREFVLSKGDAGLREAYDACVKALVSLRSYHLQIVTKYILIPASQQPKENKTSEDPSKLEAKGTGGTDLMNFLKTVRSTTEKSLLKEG

Structure (SMILES) | IC50 [µM]
CN(C)S(=O)(=O)N1CC(CNc2nonc2C(=NO)Nc2ccc(F)c(Br)c2)C1 [Compound 81] | 0.142
NS(=O)(=O)N1CCCC(CNc2nonc2/C(=N/O)Nc2ccc(F)c(Br)c2)C1 (centres unmarked) [Compound 10, N-(3-bromo-4-fluorophenyl)-N′-hydroxyl-4-(((1-sulfamoylpiperidin-3-yl)methyl)amino)-1,2,5-oxadiazole-3-formamidine] | 0.254
NS(=O)(=O)N1CCC(CNc2nonc2/C(=N/O)Nc2ccc(F)c(Br)c2)C1 (centres unmarked) [Compound 7, N-(3-bromo-4-fluorophenyl)-N′-hydroxyl-4-(((1-sulfamoylpyrrolidin-3-yl)methyl)amino)-1,2,5-oxadiazole-3-formamidine] | 0.059
CS(=O)(=O)N1CC(CNc2nonc2C(=NO)Nc2ccc(F)c(Br)c2)C1 [Compound 85] | 0.115
O=S(=O)(C1CC1)N1CCC(CNc2nonc2/C(=N/O)Nc2ccc(F)c(Br)c2)C1 (centres unmarked) [Compound 21, N-(3-bromo-4-fluorophenyl)-N′-hydroxyl-4-(((1-cyclopropylsulfonylazacyclopentan-3-yl)methyl)amino)-1,2,5-oxadiazole-3-formamidine] | 0.141
NS(=O)(=O)N1CCCC1CNc1nonc1/C(=N/O)Nc1ccc(F)c(Br)c1 (centres unmarked) [Compound 13, N-(3-Bromo-4-fluorophenyl)-N′-hydroxyl-4-(((1-sulfamoylazacyclopentan-2-yl)methyl)amino)-1,2,5-oxadiazole-3-formamidine] | 0.214
NS(=O)(=O)N1CCC(COc2nonc2/C(=N/O)Nc2ccc(F)c(Br)c2)C1 (centres unmarked) [Compound 27, (Z)—N-(3-Bromo-4-fluorophenyl)-N′-hydroxyl-4-((1-sulfamoylpyrrolidin-3-yl)methoxyl)-1,2,5-oxadiazol-3-formamidine] | 0.628
O/N=C(\Nc1ccc(F)c(Br)c1)c1nonc1NCC1CNC1 [Compound 2, 4-((Azetidin-3-ylmethyl)amino)-N-(3-bromo-4-fluorophenyl)-N′-hydroxyl-1,2,5-oxadiazole-3-formamidine] | 0.182
CC(C)(C)OC(=O)N1CC(CNc2nonc2/C(=N/O)Nc2ccc(F)c(Br)c2)C1 [Compound 3, t-Butyl 3-(((4-(N-(3-bromo-4-fluorophenyl)-N′-hydroxylformamidinyl)-1,2,5-oxadiazole-3-yl)amino)methyl)azetidin-1-formate] | 0.43
NS(=O)(=O)N1CCCC1CCNc1nonc1/C(=N/O)Nc1ccc(F)c(Br)c1 (centres unmarked) [Compound 16, N-(3-bromo-4-fluorophenyl)-N′-hydroxyl-4-((2-(1-sulfamoylazacyclopentan-2-yl)ethyl)amino)-1,2,5-oxadiazole-3-formamidine] | 0.151
CS(=O)(=O)N1CCC(CNc2nonc2/C(=N/O)Nc2ccc(F)c(Br)c2)C1 (centres unmarked) [Compound 20, N-(3-bromo-4-fluorophenyl)-N′-hydroxyl-4-(((1-methylsulfonylazacyclopentan-3-yl)methyl)amino)-1,2,5-oxadiazole-3-formamidine] | 0.079

More lines, in order of falling IC50, values ahead:

IC50 [µM] | Structure (SMILES)
0.279 | NS(=O)(=O)N1CCCCC1CNc1nonc1/C(=N/O)Nc1ccc(F)c(Br)c1 (centres unmarked) [Compound 14, N-(3-bromo-4-fluorophenyl)-N′-hydroxyl-4-(((1-sulfamoylazacyclohexane-2-yl)methyl)amino)-1,2,5-oxadiazole-3-formamidine]
0.276 | CC(C)(C)OC(=O)N1CCC(CNc2nonc2/C(=N/O)Nc2ccc(F)c(Br)c2)C1 (centres unmarked) [Compound 5]
0.206 | NS(=O)(=O)N1CCOC(CNc2nonc2/C(=N/O)Nc2ccc(F)c(Br)c2)C1 (centres unmarked) [Compound 11, N-(3-bromo-4-fluorophenyl)-N′-hydroxyl-4-(((4-sulfamoylmorpholin-2-yl)methyl)amino)-1,2,5-oxadiazole-3-formamidine]
0.183 | CN(C)S(=O)(=O)N1CCC(CNc2nonc2/C(=N/O)Nc2ccc(F)c(Br)c2)C1 (centres unmarked) [Compound 23, (Z)—N-(3-bromo-4-fluorophenyl)-4-(((1-(N,N-methylsulfonyl)pyrrolidinyl-3-yl)methyl)amino)-N′-hydroxyl-1,2,5-oxadiazol-3-carboxyoximide]
0.183 | CN(C)C(=O)C(=O)N1CC(CNc2nonc2C(=NO)Nc2ccc(F)c(Br)c2)C1 [Compound 89]
0.167 | O=S(=O)(C1CC1)N1CC(CNc2nonc2/C(=N/O)Nc2ccc(F)c(Br)c2)C1 [Compound 86, (Z)—N-(3-Bromo-4-fluorophenyl)-4-(((1-(cyclopropylsulfonyl)azido-3-yl)methyl)amino)-N′-hydroxyl-1,2,5-oxadiazol-3-carboxyoximide]
0.133 | NS(=O)(=O)N1CCC1CNc1nonc1/C(=N/O)Nc1ccc(F)c(Br)c1 (centres unmarked) [Compound 12, N-(3-Bromo-4-fluorophenyl)-N′-hydroxyl-4-(((1-sulfamoylazetidine-2-yl)methyl)amino)-1,2,5-oxadiazole-3-formamidine]
0.119 | NS(=O)(=O)N1CCC(CCNc2nonc2/C(=N/O)Nc2ccc(F)c(Br)c2)CC1 [Compound 19, N-(3-bromo-4-fluorophenyl)-N′-hydroxyl-4-((2-(1-sulfamoylazacyclohexane-4-yl)ethyl)amino)-1,2,5-oxadiazole-3-formamidine]
0.114 | NS(=O)(=O)N1CCC(CNc2nonc2/C(=N/O)Nc2ccc(F)c(Br)c2)CC1 [Compound 18, N-(3-bromo-4-fluorophenyl)-N′-hydroxyl-4-(((1-sulfamoylazacyclohexane-4-yl)methyl)amino)-1,2,5-oxadiazole-3-formamidine]
0.101 | NS(=O)(=O)N1CCC(O)(CNc2nonc2C(=NO)Nc2ccc(F)c(Br)c2)C1 (centres unmarked) [Compound 151]
0.088 | O/N=C(\Nc1ccc(F)c(Br)c1)c1nonc1NCC1CCNC1 (centres unmarked) [Compound 6, N-(3-Bromo-4-fluorophenyl)-N′-hydroxyl-4-((azacyclopentan-3-ylmethyl)amino)-1,2,5-oxadiazole-3-formamidine]
0.064 | NS(=O)(=O)N1CC(O)(CNc2nonc2C(=NO)Nc2ccc(F)c(Br)c2)C1 [Compound 92]

Reference: patent US11447477B2, “Indoleamine-2,3-dioxygenase inhibitor, the preparative method and the use thereof” (HINOVA PHARMACEUTICALS INC., priority 2017, dated 2022)
